Experimental data as given in paper PMC11845477, “Exploring the principles behind antibiotics with limited resistance” (Nature Communications, 2025).
Where a SMILES comes first, the peptide text is derived from it. Bridges are numbered along the chain shown (N, C = ends). [ ]: non-standard residue; d: D form. The star is where a group is joined. X2 = CC[C@H](C)CCCCC(=O)*; Dab = NCC[C@H](N)C(=O)O

System: P. aeruginosa ATCC BAA-3107 (SEN) and P. aeruginosa LESB58 (MDR)
Experiment: Adaptive laboratory evolution (ALE), relative MIC of evolved lines
Format: cell-based, Pseudomonas aeruginosa
Text: Using the same set of bacterial strains, we initiated adaptive laboratory evolution with the aim to maximize the level of antibiotic resistance in the populations achieved during a longer, but fixed time period.
An established protocol for adaptive laboratory evolution[46],[73] was followed to propagate populations with the highest resistance levels. Starting with an antibiotic concentration that caused approximately 50% growth inhibition, ten parallel populations for each antibiotic-ancestor strain combination were grown for 72 hours at 37 °C with continuous shaking (300 RPM). MHB broth medium was used unless stated otherwise. After each incubation, 20 µl of each culture was transferred to four new wells containing fresh medium with increasing antibiotic concentrations (0.5×, 1×, 1.5×, and 2.5× the previous concentration) in a chessboard layout to monitor potential cross-contamination. Growth was monitored by measuring OD600 using a Biotek Synergy 2 microplate reader, and only populations grown in the highest drug concentration with an OD600 > 0.2 were transferred further.
A robotic liquid handling system was used to automatically prepare a 11 to 16-step serial dilution in 384-well microtiter plates (Greiner). A final concentration of 5 × 10^5 bacterial cells per mL were inoculated into each well containing 60 µL MHB medium. Bacterial cultures were incubated at 37 °C with continuous shaking (Infors shaker, 900 rpm with 3 mm throw) for 18 hours (2 replicates from each). Cell growth was monitored by measuring the optical density (OD600 values, using Biotek Synergy microplate reader). MIC was defined as the antibiotic concentration of complete growth inhibition (i.e., OD600 < 0.05). Relative MIC was calculated as follows:1 relativeMIC=MICevolved/MICancestor […]
Supplementary Figure 4. Resistance levels following adaptive laboratory evolution across bacterial strains. The level of resistance was measured as the fold change in relative MIC between evolved and ancestral strains after ~60 days of adaptive laboratory evolution. Data are grouped by bacterial strain (A. baumannii (AB), E. coli (EC), K. pneumoniae (KP), and P. aeruginosa (PA)) and categorized as either multidrug-resistant (MDR) or sensitive (SEN). Each data point represents a laboratory evolved line, and boxplots show the median, first and third quartiles, with whiskers indicating the 5th and 95th percentiles.
Statistical analysis was performed using two-sided Dunn’s post-hoc test with Benjamini-Hochberg correction for multiple comparisons (****/ ***/ **/ * indicates p < 0.0001/ 0.001/ 0.01/ 0.05). For detailed information on antibiotic and bacterial species, see Supplementary Table 1. For mode of action groups, refer to Table 1. Source data are provided as a Source Data file.

Structure (SMILES)	MIC of evolved line (PA-SEN (ATCC BAA 3107), evolved line 2)	MIC of evolved line (PA-SEN (ATCC BAA 3107), evolved line 3)	MIC of evolved line (PA-SEN (ATCC BAA 3107), evolved line 4)	MIC of evolved line (PA-SEN (ATCC BAA 3107), evolved line 6)	MIC of evolved line (PA-SEN (ATCC BAA 3107), evolved line 7)	MIC of evolved line (PA-SEN (ATCC BAA 3107), evolved line 8)	MIC of evolved line (PA-SEN (ATCC BAA 3107), evolved line 9)	MIC of evolved line (PA-SEN (ATCC BAA 3107), evolved line 10)	MIC of evolved line (PA-SEN ATCC BAA 3107, evolved line 1)	Relative MIC (log10) (PA-MDR (Pseudomonas aeruginosa LESB 58), evolved line 1)	Relative MIC (log10) (PA-MDR (Pseudomonas aeruginosa LESB 58), evolved line 6)	Relative MIC (log10) (PA-MDR, Pseudomonas aeruginosa LESB 58, evolved line 9)	Relative MIC (log10) (PA-MDR, Pseudomonas aeruginosa LESB 58, evolved line 2)	Relative MIC (log10) (PA-MDR, Pseudomonas aeruginosa LESB 58, evolved line 7)	Relative MIC (log10) (PA-SEN, Pseudomonas aeruginosa ATCC BAA 3107, evolved line 1)	Relative MIC (log10) (PA-SEN, Pseudomonas aeruginosa ATCC BAA 3107, evolved line 4)	Relative MIC (log10) (PA-SEN, Pseudomonas aeruginosa ATCC BAA 3107, evolved line 5)	Relative MIC (log10) (PA-SEN, Pseudomonas aeruginosa ATCC BAA 3107, evolved line 7)	Relative MIC (log10) (PA-SEN, Pseudomonas aeruginosa ATCC BAA 3107, evolved line 8)
COc1c(N2C[C@@H]3CCCN[C@@H]3C2)c(F)cc2c(=O)c(C(=O)O)cn(C3CC3)c12 [Moxifloxacin]	256 µg/mL	512 µg/mL	128 µg/mL	512 µg/mL	256 µg/mL	512 µg/mL	256 µg/mL	128 µg/mL	512 µg/mL	–	–	–	–	–	–	–	–	–	–
CC[C@H](C)CCCCC(=O)N[C@@H](CCN)C(=O)N[C@H](C(=O)N[C@@H](CCN)C(=O)N[C@H]1CCNC(=O)[C@H]([C@@H](C)O)NC(=O)[C@H](CCN)NC(=O)[C@H](CCN)NC(=O)[C@H](CC(C)C)NC(=O)[C@@H](Cc2ccccc2)NC(=O)[C@H](CCN)NC1=O)[C@@H](C)O [Polymyxin B] (X2-[Dab]T[Dab][Dab][Dab][dF]L[Dab][Dab]T; lactam 4-C (inferred); N-terminus assumed)	–	–	–	–	–	–	–	–	–	1.505 log10	1.806 log10	1.806 log10	2.107 log10	1.204 log10	1.505 log10	1.505 log10	1.505 log10	1.204 log10	1.204 log10
